Assay results as given in US20180230519A1, “METHODS AND KITS FOR SELECTING TREATMENT FOR ORAL INFECTIONS” (OraVital Inc., priority 2017, published 2018).
Read-outs that look alike come from different tables or passages of the source.

Columns and labels:
[1] = tested on: Aggregatibacter actinomycetemcomitans; details: general statement, no test described; cited from earlier work
[2] = tested on: oral malodor and periodontal disease; experiment: Clinical study of antibiotic antifungal rinse in patients with halitosis
Experimental: (§1) Tongue base, tongue dorsum, and proximal areas of the dentition were evaluated for odors. Biofilm samples from these areas were taken from each patient. A Gram stain analysis provided morphological information on the microorganisms present in the oral cavity. In addition, the microbiology of the teeth and tongue was tested with a BANA strip for red complex clusters. Six-point periodontal probing was used to assess pocket depth and bleeding points.
(§2) Treatment initially consisted of rinsing with chlorhexidine 0.2% for 2 weeks, twice daily.
(§3) The treatment chosen was the metronidazole-nystatin rinse prepared as described in Example 3. Three times a day, patients dispensed a “capful” (2 ml) of this mixture, swished and gargled for 30 seconds, and expectorated the contents. Once per day, they flossed immediately after rinsing. After each rinse with antibiotic mixture, patients were to abstain from eating or drinking for 30 minutes. After 2 weeks of rinsing, patients returned to the clinic for an evaluation of treatment. Breath odor measurements and periodontal measurements were repeated, and compared with those taken at the initial appointment. Microbiology samples of the tongue base, tongue dorsum, and teeth were taken, analyzed, and compared with the pre-treatment samples. Patients were then placed on chlorhexidine 0.2% for 2 more weeks, followed by routine rinsing with non-prescription mouthwashes that the patient selected.

[3] = tested on: oral malodor and periodontal disease; details: human, in vivo
Experimental: as §1, §2, §3

Solubility in water = assay type: physicochemical
Experimental: A metronidazole-nystatin mixture was prepared for use as an oral rinse to treat halitosis, gingivitis, tonsillitis, and/or mild to moderate periodontal disease. Tablets of metronidazole (APO-Metronidazole™, Apotex Corp.) were crushed and grounded, the larger particles filtered out, and the fine particles mixed with nystatin suspension or nystatin powder (Nilstat™, Alimed or PMS PharmaScience) in distilled water.

CC1(C)S[C@@H]2[C@H](NC(=O)[C@H](N)c3ccc(O)cc3)C(=O)N2[C@H]1C(=O)O [amoxicillin]
response of Aggregatibacter actinomycetemcomitans [1]: responds best

[H]/N=C(\N/C(=N/[H])NCCCCCCNC(=N)NC(=N)Nc1ccc(Cl)cc1)Nc1ccc(Cl)cc1 [chlorhexidine]
reduction of oral malodor ([2]; chlorhexidine 0.2% rinse alone, 2 weeks, twice daily): insufficient to completely reduce oral malodor

CCC[C@@H]1C[C@@H](C(=O)N[C@@H]([C@H]2O[C@H](SC)[C@H](O)[C@@H](O)[C@H]2O)[C@H](C)Cl)N(C)C1 [clindamycin]
side effects ([2]; systemic metronidazole and clindamycin, followed by 0.2% chlorhexidine): systemic side effects

Cc1ncc([N+](=O)[O-])n1CCO [metronidazole]
Aggregatibacter actinomycetemcomitans responds (share of the time) [1]: about 50 % of the time
side effects [3]: systemic side effects
solubility in water (Solubility in water): sparingly soluble or practically insoluble

C[C@@H]1[C@H](O)[C@@H](C)/C=C/C=C/CC/C=C/C=C/C=C/C=C/C(O[C@H]2O[C@H](C)[C@@H](O)[C@H](N)[C@@H]2O)CC2O[C@](O)(CC(O)C(O)CCC(O)CC(O)CC(O)CC(=O)O[C@H]1C)CC(O)C2C(=O)O (stereo partly shown) [nystatin]
solubility in water (Solubility in water; water, form a suspension or dispersion): sparingly soluble or practically insoluble
